Literature values in US20050272704A1, “Compounds, compositions and methods for stabilizing transthyretin and inhibiting transthyretin misfolding” (priority 2004, published 2005).
Where two headings read alike, the source gives them in different places.

O=C(O)c1cc(-c2ccc(F)cc2F)ccc1O [diflunisal]
diflunisal concentration in blood (4 h after a single 500 mg dose): > 300 µM
diflunisal concentration in blood (20 h after a single 500 mg dose): exceed 30 μM
